Where “and” joins values, the source holds several entries; their conditions need not be identical. Equal values may be shown once.
Key:
HDAC6 = biological target: T1, HDAC6 (Homo sapiens, UniProt Q9UBN7); test: In vitro deacetylation assay, HDAC6 (GAK substrate); format: biochemical; details: for EC50: Figure 2C, in vitro data in μM; for IC50: purified human HDAC6, Ac-GAK-Ac-AMC (GAK) substrate 10 µM
T1 construct: HDAC6 2-1215 Open Biosystems; Strep-FLAG-HALO (N); made in house; host or cells: HEK293/T17
T1 sequence (Q9UBN7 2-1215): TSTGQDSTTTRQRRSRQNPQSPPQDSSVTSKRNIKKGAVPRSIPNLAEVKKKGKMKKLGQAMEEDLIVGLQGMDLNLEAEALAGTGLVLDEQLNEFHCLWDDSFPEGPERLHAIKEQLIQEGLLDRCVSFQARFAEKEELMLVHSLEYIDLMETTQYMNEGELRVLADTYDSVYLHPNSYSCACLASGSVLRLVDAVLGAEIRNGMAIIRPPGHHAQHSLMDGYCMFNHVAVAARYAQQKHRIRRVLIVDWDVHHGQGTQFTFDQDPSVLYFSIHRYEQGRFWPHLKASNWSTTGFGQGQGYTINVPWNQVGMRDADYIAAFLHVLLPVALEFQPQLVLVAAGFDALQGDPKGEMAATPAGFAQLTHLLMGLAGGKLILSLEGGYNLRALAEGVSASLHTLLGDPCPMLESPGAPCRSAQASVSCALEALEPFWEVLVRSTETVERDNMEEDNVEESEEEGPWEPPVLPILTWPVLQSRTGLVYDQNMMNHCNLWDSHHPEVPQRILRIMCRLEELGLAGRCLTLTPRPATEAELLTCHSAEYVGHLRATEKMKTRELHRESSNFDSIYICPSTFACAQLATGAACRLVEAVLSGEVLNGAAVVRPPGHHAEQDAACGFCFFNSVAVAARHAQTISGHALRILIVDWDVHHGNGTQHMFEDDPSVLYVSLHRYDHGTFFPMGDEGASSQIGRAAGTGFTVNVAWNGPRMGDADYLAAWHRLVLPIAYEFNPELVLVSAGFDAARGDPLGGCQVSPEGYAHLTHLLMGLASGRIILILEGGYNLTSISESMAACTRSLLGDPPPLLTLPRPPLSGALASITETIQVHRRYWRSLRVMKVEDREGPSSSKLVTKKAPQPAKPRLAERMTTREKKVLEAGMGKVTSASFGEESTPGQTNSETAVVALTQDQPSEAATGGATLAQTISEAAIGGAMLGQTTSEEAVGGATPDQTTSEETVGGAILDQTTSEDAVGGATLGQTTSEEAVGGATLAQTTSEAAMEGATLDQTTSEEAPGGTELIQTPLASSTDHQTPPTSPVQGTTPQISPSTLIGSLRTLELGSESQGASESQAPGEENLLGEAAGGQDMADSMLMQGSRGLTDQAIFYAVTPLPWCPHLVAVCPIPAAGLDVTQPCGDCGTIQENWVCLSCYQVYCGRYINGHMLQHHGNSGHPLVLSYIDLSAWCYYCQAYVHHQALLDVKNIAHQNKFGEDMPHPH

HDAC1 [1] = biological target: T2, HDAC1 (Homo sapiens, UniProt Q13547); test: In vitro deacetylation assay, HDAC1 (GAK substrate); format: biochemical; details: for IC50: purified human HDAC1, GAK substrate 10 µM
T2 construct: HDAC1 1-482 Addgene; Strep-FLAG-HALO (N); made in house; host or cells: HEK293/T17

HDAC1 [2] = biological target: T2, HDAC1; test: In vitro deacetylation assay, HDAC1 (RHKK substrate); format: biochemical; details: for IC50: purified human HDAC1, RHK[AcK]-AMC (RHKK) substrate; for SI (HD6/HD1) RHKK: ratio of IC50 HDAC1 (RHKK) divided by IC50 HDAC6
histone H3 acetylation = test: Histone H3 (K9/K14) acetylation in RPMI-8226 cells by Western blotting; format: cell-based; details: 6 h, Western blot
RPMI-8226 lymphoblasts = test: MTT viability assay; format: cell-based; details: RPMI-8226 cells, 48 h, MTT
Procedure: RPMI-8226 lymphoblasts (ATTC #CCL-155) were used to assess the cytotoxicity of tested compounds. […] Dilution series of tested inhibitors were prepared as 10x stock solutions in PBS and 10 μL was added to cells and incubated under a 5% CO2 atmosphere at 37 °C, for 2 days. Following incubation, 10 μL of MTT reagent (3-(4,5-dimethylthiazol-2-yl)-2,5-diphenyltetrazolium bromide, 5 mg/mL in PBS, Sigma Aldrich) was added to each well and incubated for 90 min, 37 °C, 5% CO2. […]

all other HDAC isoforms = test: In vitro isotype selectivity screening against panel of zinc-dependent human HDACs; format: biochemical
Procedure: Customized assays were used for individual HDAC isoforms to reflect their distinct substrate specificity. All reactions were carried out in the activity buffer comprising 50 mM HEPES, 140 mM NaCl, 10 mM KCl, pH 7.4 supplemented with 1 mg/mL bovine serum albumin (BSA) and 1 mM tris(2-carboxyethyl) phosphine (TCEP).
HDACs 1–9, 11: Assays were performed essentially as described previously. Briefly, the Ac-GAK-Ac-AMC substrate was used to determine the activity of HDACs 1, 2, 3, and 6; and the Boc-Lys(TFA)-AMC substrate was used for HDACs 4, 5, 7, 8, 9, and 11 (both substrates Bachem, Bubendorf, Switzerland). […] Released aminometyl coumarine was quantified using a CLARIOstar plate reader (BMG Labtech GmbH, Ortenberg, Germany) at λex/λem = 365/440 nm.
HDAC10: Recombinant human HDAC10 (0.5 nM) in the reaction buffer was preincubated with a 3-fold dilution series of a tested inhibitor at 37 °C for 15 min and the reaction initiated by the addition of a substrate (N8-acetylspermidine labeled with fluorescein; 10 µM final concentration) in a total volume of 50 µL. […] Reaction mixtures were analyzed by RP-HPLC with a Kinetex 2.6 μm XB-C18 100 Å column with a fluorescence detector set to λEX/λEM = 492/516.
HDAC inhibition was calculated using corresponding non-inhibited reactions as a control. […]

T2 sequence (Q13547 whole entry): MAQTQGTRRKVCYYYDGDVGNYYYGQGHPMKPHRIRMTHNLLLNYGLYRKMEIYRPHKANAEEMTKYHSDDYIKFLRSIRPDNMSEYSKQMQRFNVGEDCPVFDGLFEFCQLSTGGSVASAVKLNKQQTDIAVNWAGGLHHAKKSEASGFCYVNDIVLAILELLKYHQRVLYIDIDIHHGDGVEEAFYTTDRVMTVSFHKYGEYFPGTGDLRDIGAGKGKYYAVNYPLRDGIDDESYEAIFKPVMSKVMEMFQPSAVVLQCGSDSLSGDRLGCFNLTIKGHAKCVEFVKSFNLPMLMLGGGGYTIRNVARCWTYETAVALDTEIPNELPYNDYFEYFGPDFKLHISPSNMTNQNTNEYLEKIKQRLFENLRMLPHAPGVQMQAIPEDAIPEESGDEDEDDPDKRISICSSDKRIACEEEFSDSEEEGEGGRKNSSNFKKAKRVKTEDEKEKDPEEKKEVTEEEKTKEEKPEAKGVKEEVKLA

Row | EC50 (HDAC6) | IC50 (HDAC6) | IC50 (HDAC1 [1]) | IC50 (HDAC1 [2]) | SI (HD6/HD1) RHKK (HDAC1 [2]) | EC50 (HDAC1 [1]; Figure 2C, in vitro data (GAK) in μM) | SI (HD6/HD1) GAK, in vitro (HDAC1 [1]; ratio of IC50 HDAC1 (GAK) divided by IC50 HDAC6) | SMILES | effect on histone H3 (K9/K14) acetylation, class I HDAC inhibition (histone H3 acetylation) | effect on cell viability (RPMI-8226 lymphoblasts) | selectivity for HDAC6 over all other HDAC isoforms (all other HDAC isoforms)
1 | 0.0021 µM | 2.1 nM and 2.06 nM | > 50000 nM | > 50000 nM | >25,000 | – | – | CS(=O)(=O)N(Cc1ccc(-c2nnc(C(F)F)o2)cn1)c1cccc(Cl)c1 [compound 7, N-(3-chlorophenyl)-N-((5-(5-(difluoromethyl)-1,3,4-oxadiazol-2-yl)pyridin-2-yl)methyl)methanesulfonamide] | does not increase H3 acetylation even at the highest concentrations | less pronounced effects on cell viability at high inhibitor concentrations | 10,000 fold and > 10,000 fold
2 | 0.0011 µM | 1.11 nM | 1190 nM | 21700 nM | 19,550 | 1.19 µM | 1076 | O=C(NO)c1cnc(NC2(c3cccc(F)c3)CCCCC2)nc1 [ACY-775] | – | – | –

— article PMC10003107, “Selectivity of Hydroxamate- and Difluoromethyloxadiazole-Based Inhibitors of Histone Deacetylase 6 In Vitro and in Cells” (International Journal of Molecular Sciences, 2023)
